Measurements from US20120064513A1, “Cell Sensor, And Monitoring Method Using Same For The Real-Time Monitoring Of Cell Capacitance” (Industry-Acaddemic Cooperation Foundation, Yonsei …, priority 2009, published 2012).

B1: TRAIL: cell death-inducing agent, TRAIL (TNF related apoptosis inducing ligand) (protein, UniProt P50591 1-281, looked up)
Tumor necrosis factor ligand …: MAMMEVQGGPSLGQTCVLIVIFTVLLQSLCVAVTYVYFTNELKQMQDKYSKSGIACFLKEDDSYWDPNDEESMNSPCWQVKWQLRQLVRKMILRTSEETISTVQEKQQNISPLVRERGPQRVAAHITGTRGRSNTLSSPNSKNEKALGRKINSWESSRSGHSFLSNLHLRNGELVIHEKGFYYIYSQTYFRFQEEIKENTKNDKQMVQYIYKYTSYPDPILLMKSARNSCWSKDAEYGLYSIYQGGIFELKENDRIFVSVTNEHLIDMDHEASFFGAFLVG

Test system: HEP1 cell highly expressing CAR (coxsackie and adenovirus receptor)
Assay: real-time monitoring of cell capacitance with the cell sensor, HEP1 cells
Format: cell-based
Text: The cell sensor 100 is connected to an LCR meter to measure capacitance, thereby monitoring potential changes of the cell 200 in real time. At this time, 10 mV of AC voltage at a frequency of 3 KHz is applied to the cell sensor 100. In this regard, the frequency of AC voltage applied to the cell sensor 100 may vary depending on the gap size between the first electrode 121 and the second electrode 122, and any frequency other than 3 KHz is also possible, as long as it is a low frequency.
A method for monitoring a cell condition in real time using the cell sensor according to the preferred embodiment of the present invention is as follows.
First, the aforementioned cell sensor is fabricated. The fabricated electrode is sterilized using autoclave equipment and ethanol, and then the well made of acryl or PDMS is attached on the electrode for cell culture.
Next, cells grown to a predetermined density are harvested with trypsin-EDTA, and introduced and attached onto the gap area between the electrodes using a pipette.
Subsequently, the cell-loaded electrodes are placed in a 5% CO2 cell culture incubator at 37° C. and incubated for 12 hrs, in order to tightly attach the cells onto the gap between the electrodes. During incubation, the cells are observed under an optical microscope, whether their conditions are suitable for the experiment.
Thereafter, the fluidic channel is mounted onto the electrodes where the cells are tightly attached, and is fixed on the stage of an optical microscope, of which the bottom is maintained at 37° C. Then, a cell culture media and at least one of biomolecules, cell death-inducing agents and metal particles for observation of endocytosis or adsorption is introduced through the inlet of the fluidic channel. […]
During the cell cultivation, capacitance between the first electrode and the second electrode is measured in real time, and thus endocytosis of the biomolecules into the cells through the cell surface receptor or adsorption is monitored in real time.

[1] = HEP1 cells, pretreatment then virus 1*10^5 per chamber

| Molecule | capacitance after the initial peak, virus after pretreatment of the cells [1] | initial capacitance peak on virus endocytosis after pretreatment of the cells [1] | cell capacitance during cell death by cell death-inducing agent (HEP-1 cells, final concentration 50 ng/ml) |
| --- | --- | --- | --- |
| NC(=O)c1ncn([C@@H]2O[C@H](CO)[C@@H](O)[C@H]2O)n1 [Ribavirin] | the capacitance after the peak decreases | the initial peak appears | – |
| B1 | – | – | capacitance decreases during cell death |
